Test results as given in US7135457B1, “Random peptides that bind to gastro-intestinal tract (GIT) transport receptors and related methods” (Cytogen Corporation, priority 1997, dated 2006).
Peptide text beside a SMILES is read from it. * marks the point of attachment. Dansyl = CN(C)c1cccc2c(S(=O)(=O)*)cccc12

Experiments:
[1] = test system: P100 membrane fractions derived from Caco-2 cells; assay: Dansylated peptide ELISA on P100: PAX2 and HAX42 peptides relative binding; conditions: PAX2 peptides, ratio to ZElan021 (HAX42 = 1.00); for Binding value at 20 μg/ml: first 20 μg/ml column
Description: (§1) The peptides and proteins were analyzed by a dansylated peptide ELISA method in which 96 well plates were coated overnight at 4° C. with 100 μl/well coating protein (normally 100 μg/ml P100 membrane fraction) in 0.05M carbonate buffer pH9.6. Nonspecific binding was blocked using 200 μl/well, 2% Marvel/PBS for 2 hours at 37° C. prior to incubation with dansylated peptides. The plates were washed three times with PBS/0.05% Tween 20 and after each subsequent incubation step. […] A buffer blank control was included to ensure that background binding to plastic was not due to the antibodies used in the assay system. […] The plates were then incubated with an anti-mouse λ-HRP conjugated antibody (Southern Biotech 1060-05) at a 1:10,000 dilution in blocking solution, 100 μl/well for 1 hour at room temperature. Plates were developed using 75 μl/well Bionostics TMB substrate and incubated for approximately 10 minutes. The developing reaction was stopped using Bionostics Red Stop solution (25 μl/well), and the optical density of the plates was read at 650 nm.

[2] = test system: P100 membrane fractions derived from Caco-2 cells; assay: as above; conditions: ratio to ZElan021 (HAX42 = 1.00)
[3] = Drug potency, peptide loading and size of coacervated particles; type: physicochemical; conditions: formulation 1 particles (coacervation), blend
[4] = Description: In particular, phages selected in vitro to each receptor or binding site located in the GIT were amplified in E. coli, PEG-precipitated, resuspended in TBS and the titer of each phage sample was determined by plaquing in E. coli as described above. […] Using the in situ loop model described above, 0.5 ml of preselected phage library solution was injected into the tied-off portion of the duodenum/jejunum. Blood was collected into heparinized tubes from the portal vein at 0, 15, 30, 45 and 60 minutes. A blood sample was taken from the systemic circulation at the end of the experiment. Similarly, the portion of the duodenum/jejunum used for phage injection was taken at the end of the experiment.
Thirty microliters of the collected portal blood (neat and 10^−2, 10^−4, 10^−6 dilutions) was added to 30 μl E. coli K91Kan cells (overnight culture) and incubated at 37° C. for 10 min. Subsequently, 3 ml of top agarose was added and the samples were plated for plaques. One hundred microliters of the collected portal blood was added to 100 μl of E. coli K91Kan. Five milliliters of LB medium was then added and the samples were incubated at 37° C. overnight in a rotating microbial incubator. The E. coli was removed by centrifugation and the amplified phage supernatant samples were either titered directly or were PEG-precipitated, resuspended in TBS and titered. Following titration of the amplified phage, samples containing phage from each set of animals were combined, adjusting the titer of each sample to the same titer, and were plated for plaques on LB agar plates (22 cm^2 square plates). Either 12,000 or 24,000 phage were plated for plaques.
Thirty microliters of the collected systemic blood (neat and 10^−2, 10^−4, 10^−6 dilutions) was added to E. coli K91Kan cells, incubated at 37° C. for 10 min. Three ml of top agarose was then added and the samples were plated for plaques. One hundred microliters of the collected systemic blood was added to 100 μl of E. coli K91Kan, incubated at 37° C. for 10 min. Five milliliters of LB medium was then added and the samples were incubated at 37° C. overnight in a rotating microbial incubator. The E. coli was removed by centrifugation and the amplified phage supernatant samples were either titered directly or were PEG-precipitated, resuspended in TBS and titered. Following titration of the amplified phage, samples containing phage from each set of animals were combined, adjusting the titer of each sample to the same titer, and were plated for plaques on LB agar plates (22 cm^2 square plates). Either 12,000 or 24,000 phage were plated for plaques. The intestinal tissue portion used in each closed loop was excised. […] Alternatively, the tissue (in PBS supplemented with protease inhibitors) was homogenized in an Ultra Thorex homogenizer, washed 3 times in PBS containing protease inhibitors and resuspended in PBS containing protease inhibitors (Int-G samples). In each case, serial dilutions (neat and 10^−2, 10^−4, 10^−6 dilutions) of the tissue homogenate was titered in E. coli.
The phage amplified from the portal blood, systemic blood and intestinal tissue was plated for plaques. […] The filters were air-dried, and the DNA was cross-linked to the filter (UV crosslinking: 2 min, high setting). The filters were incubated in pre-hybridization buffer (6×SSC, 5×Denhardt's solution, 0.1% SDS, 20 μg/ml yeast tRNA) at 40° C.-45° C. for at least 60 min.
Synthetic oligonucleotides, (22-mers), complimentary to regions coding for the receptor or binding sites used to create the preselected phage library, were synthesized (see Table 14 below).
The oligonucleotides (5 pmol) were 5′ end labelled with ^32P-ATP and T4 polynucleotide kinase and approximately 2.5 pmol of labelled oligonucleotide was used in hybridization studies. […] The filters were air-dried and exposed for autoradiography for 15 hours, 24 hours or 72 hours.
Hybridization data for pools from each receptor group of rats was compiled.

[5] = test system: P100 membrane fraction derived from Caco-2 cells; assay: GST-PAX2 peptides relative binding to P100 fractions; conditions: 20 μg/ml; binding to plastic subtracted; GST-HAX42 = 1.00
Description: as §1
After subtraction of the GST-peptide binding to plastic from P100 binding values, the binding of GST-PAX2 peptides were represented as a ratio of GST-HAX42 binding to P100, which was given the arbitrary value of 1.00. The following ratios were determined from binding to P100 of GST-peptides at a peptide concentration of 20 μg/ml. Bold denotes positive binding to the P100 membrane fraction.

[6] = test system: fixed Caco-2 or C2BBe1 cells; assay: ELISA of GST fusion proteins on fixed Caco-2 or C2BBe1 cells; type: binding; conditions: Caco-2
Description: Fixed Caco-2, C2BBe1, and A431 cell plates were prepared by growing cells on tissue culture treated microtiter plates. When cells were confluent, plates were fixed with 10% formaldehyde, washed twice with PBS and stored with 0.5% BSA-PBS at −20° C. […] The standard ELISA procedure was followed at this point.
The standard ELISA procedure was modified as follows. GST proteins were diluted to an appropriate concentration in PBS containing 1% BSA and 0.05% Tween20 (1% BPT), titered and incubated one hour at room temperature. Following five washes an anti-GST monoclonal antibody was added (Sigma, St. Louis Clone GST-2 diluted 1:10,000 in 1% BPT) and incubated one hour. After five more washes goat anti-mouse IgG2b-HRP was added (Southern Biotechnology Associates Inc., Birmingham, Ala., diluted 1:4000 in 1% BPT) and incubated one hour. After five washes plates were developed with TMB peroxidase substrate (Kirkegard and Perry, Gaithersburg, Md.). All data is presented with background binding subtracted.

Molecule | Binding value at 50 μg/ml (Southern Ab) [1] | Binding value at 20 μg/ml [1] | Binding value at 50 μg/ml ([1]; first 50 μg/ml column) | Binding value at 50 μg/ml ([1]; second 50 μg/ml column) | Binding value at 50 μg/ml (Jackson Ab) [2] | Value: binding to P100 as a ratio of GST-HAX42 binding [5] | other results
CC(C)C[C@H](NC(=O)[C@H](CCCNC(=N)N)NC(=O)[C@H](CCCNC(=N)N)NC(=O)[C@H](CC(N)=O)NC(=O)[C@H](Cc1c[nH]cn1)NC(=O)[C@H](CO)NC(=O)[C@H](C)NC(=O)[C@@H](N)CCCCNS(=O)(=O)c1cccc2c(N(C)C)cccc12)C(=O)N[C@@H](CCCNC(=N)N)C(=O)N[C@H](C(=O)N[C@@H](CCCNC(=N)N)C(N)=O)[C@@H](C)O [ZElan073] (H-K(Dansyl)ASHNRRLRTR-NH2) | 0.49 | 0.07 | −0.11 | 0.49 | 0.66 |  | 
CC(C)C[C@H](NC(=O)[C@H](CCCNC(=N)N)NC(=O)[C@H](CCCNC(=N)N)NC(=O)[C@H](CC(N)=O)NC(=O)[C@H](Cc1c[nH]cn1)NC(=O)[C@H](C)NC(=O)[C@H](CO)NC(=O)[C@@H](N)CCCCNS(=O)(=O)c1cccc2c(N(C)C)cccc12)C(=O)N[C@@H](CCCNC(=N)N)C(=O)N[C@H](C(=O)N[C@@H](CCCNC(=N)N)C(N)=O)[C@@H](C)O [ZElan074] (H-K(Dansyl)SAHNRRLRTR-NH2) | 0.48 | 0.06 | 0.82 | 0.52 | 0.71 |  | 
CC(C)C[C@H](NC(=O)[C@H](CCCNC(=N)N)NC(=O)[C@H](CCCNC(=N)N)NC(=O)[C@H](CC(N)=O)NC(=O)[C@H](C)NC(=O)[C@H](CO)NC(=O)[C@H](CO)NC(=O)[C@@H](N)CCCCNS(=O)(=O)c1cccc2c(N(C)C)cccc12)C(=O)N[C@@H](CCCNC(=N)N)C(=O)N[C@H](C(=O)N[C@@H](CCCNC(=N)N)C(N)=O)[C@@H](C)O [ZElan075] (H-K(Dansyl)SSANRRLRTR-NH2) | 0.32 | 0.13 | 0.52 | 0.38 | 0.47 |  | 
CC(C)C[C@H](NC(=O)[C@H](CCCNC(=N)N)NC(=O)[C@H](CCCNC(=N)N)NC(=O)[C@H](C)NC(=O)[C@H](Cc1c[nH]cn1)NC(=O)[C@H](CO)NC(=O)[C@H](CO)NC(=O)[C@@H](N)CCCCNS(=O)(=O)c1cccc2c(N(C)C)cccc12)C(=O)N[C@@H](CCCNC(=N)N)C(=O)N[C@H](C(=O)N[C@@H](CCCNC(=N)N)C(N)=O)[C@@H](C)O [ZElan076] (H-K(Dansyl)SSHARRLRTR-NH2) | 0.42 | 0.08 | 1.00 | 0.41 | 0.60 |  | 
CC(C)C[C@H](NC(=O)[C@H](CCCNC(=N)N)NC(=O)[C@H](C)NC(=O)[C@H](CC(N)=O)NC(=O)[C@H](Cc1c[nH]cn1)NC(=O)[C@H](CO)NC(=O)[C@H](CO)NC(=O)[C@@H](N)CCCCNS(=O)(=O)c1cccc2c(N(C)C)cccc12)C(=O)N[C@@H](CCCNC(=N)N)C(=O)N[C@H](C(=O)N[C@@H](CCCNC(=N)N)C(N)=O)[C@@H](C)O [ZElan077] (H-K(Dansyl)SSHNARLRTR-NH2) | 0.52 | 0.20 | 0.76 | 0.54 | 0.73 |  | 
STPPSREAYSRPYSVDSDSDTNAKHSSHNRRLRTRSRPN [PAX2] |  |  |  |  |  |  | Insulin (insulin potency) ([3]; coated with the named peptide): 60.7 mg/g; Peptide (level of peptide coated onto the particles) ([3]; measured by fluorescence): 3.51 µL/mg; presence in the systemic circulation (in words) ([4]; text summary of HPT1 and hPEPT1 pools): found in the portal and systemic circulation; presence in the intestine samples or fractions (in words) ([4]; text summary of the four pools): not found in the intestine samples
glutathione S-transferase [GST, reference compound] |  |  |  |  |  | 0.48 | 
gst-RGSTGTAGGERSGVLNLHTRDNASGSGFKPWYPSNRGHK [GST-5PAX5] |  |  |  |  |  |  | binding to fixed Caco-2 or C2BBe1 cells relative to GST control [6]: weak to moderate binding
gst-RRLRTRSRPN [GST-115] |  |  |  |  |  | 0.36 | 
gst-SPCGGGSWCRFMQGGLFGGRTDGCGAHRNRTSASLEPPSSDY [GST-SNi34] |  |  |  |  |  |  | binding to fixed Caco-2 or C2BBe1 cells relative to GST control [6]: bound
gst-SRPYSVDSDSDTNAKHSSHNR [GST-105] |  |  |  |  |  | −0.08 | 
gst-SSHNRRLRTR [GST-114] |  |  |  |  |  | 0.17 | 
gst-STPPSREAYSRPYSVDSDSD [GST-104] |  |  |  |  |  | 0.01 | 
gst-TNAKHSSHN [GST-113] |  |  |  |  |  | 0.26 | 
